These results are taken from US20120270237A9, “METHODS FOR THE IDENTIFICATION OF KINASE INTERACTING MOLECULES AND FOR THE PURIFICATION OF KINASE PROTEINS” (Cellzone AG, priority 2009, published 2012).

For this assay, the target named is T1, PKD3 (Homo sapiens, UniProt O94806).
T1 sequence (O94806 1-890): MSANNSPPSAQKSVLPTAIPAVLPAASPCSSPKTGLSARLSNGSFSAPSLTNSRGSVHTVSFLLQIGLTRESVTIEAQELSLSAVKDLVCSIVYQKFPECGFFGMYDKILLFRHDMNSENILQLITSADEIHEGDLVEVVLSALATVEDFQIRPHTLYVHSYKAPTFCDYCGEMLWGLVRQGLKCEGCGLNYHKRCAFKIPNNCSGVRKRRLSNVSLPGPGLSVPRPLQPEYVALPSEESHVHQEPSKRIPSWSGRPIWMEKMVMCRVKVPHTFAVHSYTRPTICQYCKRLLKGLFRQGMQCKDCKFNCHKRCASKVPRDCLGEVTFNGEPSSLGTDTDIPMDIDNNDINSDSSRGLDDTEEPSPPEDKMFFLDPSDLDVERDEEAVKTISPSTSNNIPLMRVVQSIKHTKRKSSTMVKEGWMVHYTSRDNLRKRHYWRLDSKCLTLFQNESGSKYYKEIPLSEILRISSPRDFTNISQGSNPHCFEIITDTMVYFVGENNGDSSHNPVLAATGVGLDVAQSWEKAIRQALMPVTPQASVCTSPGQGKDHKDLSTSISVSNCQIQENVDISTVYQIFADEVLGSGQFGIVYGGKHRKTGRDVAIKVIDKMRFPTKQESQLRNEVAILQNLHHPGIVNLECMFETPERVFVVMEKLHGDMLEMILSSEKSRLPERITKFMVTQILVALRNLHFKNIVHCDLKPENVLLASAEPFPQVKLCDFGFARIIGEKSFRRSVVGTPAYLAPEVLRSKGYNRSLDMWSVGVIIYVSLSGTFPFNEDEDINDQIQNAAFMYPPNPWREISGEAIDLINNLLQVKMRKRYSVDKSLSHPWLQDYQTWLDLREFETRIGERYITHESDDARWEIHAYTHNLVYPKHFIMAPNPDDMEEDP
Put plainly: Kinobeads competition binding, HeLa Placenta lysate mix. Also on record: endogenous in cells. The conditions noted are these: 10 μM free compound. In short, it runs like this:
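Lysate was preincubated with 10 μM free compound, then the compound-immobilized affinity matrix captured unbound kinases. Bead-bound proteins were eluted, run on SDS-PAGE and trypsin-digested in gel. Peptides were iTRAQ-labeled against a DMSO control aliquot and quantified by LC-MS/MS reporter ions.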

Regarding `CS(=O)(=O)Nc1ccccc1Nc1nc(Nc2cccc(OCCN)c2)ncc1Cl` [CZC31326, N-(2-(2-(3-(2-aminoethoxy)phenylamino)-5-chloropyrimidin-4-ylamino)phenyl)methanesulfonamide], 10 µM produced 95.7% inhibition.
